From ChEMBL document CHEMBL1124047, “Acetohydroxamic acids as potent, selective, orally active 5-lipoxygenase inhibitors” (J Med Chem, 1988) come the findings set out here.

One assay concerns the target Cyclooxygenase (Homo sapiens, UniProt P35354+P23219). In words: In vitro inhibition of Prostaglandin G/H synthase from human polymorphs. The class given is protein assay.
Assay [1] addresses T1, Polyunsaturated fatty acid 5-lipoxygenase (Homo sapiens, UniProt P09917).
T1 sequence (P09917 whole entry): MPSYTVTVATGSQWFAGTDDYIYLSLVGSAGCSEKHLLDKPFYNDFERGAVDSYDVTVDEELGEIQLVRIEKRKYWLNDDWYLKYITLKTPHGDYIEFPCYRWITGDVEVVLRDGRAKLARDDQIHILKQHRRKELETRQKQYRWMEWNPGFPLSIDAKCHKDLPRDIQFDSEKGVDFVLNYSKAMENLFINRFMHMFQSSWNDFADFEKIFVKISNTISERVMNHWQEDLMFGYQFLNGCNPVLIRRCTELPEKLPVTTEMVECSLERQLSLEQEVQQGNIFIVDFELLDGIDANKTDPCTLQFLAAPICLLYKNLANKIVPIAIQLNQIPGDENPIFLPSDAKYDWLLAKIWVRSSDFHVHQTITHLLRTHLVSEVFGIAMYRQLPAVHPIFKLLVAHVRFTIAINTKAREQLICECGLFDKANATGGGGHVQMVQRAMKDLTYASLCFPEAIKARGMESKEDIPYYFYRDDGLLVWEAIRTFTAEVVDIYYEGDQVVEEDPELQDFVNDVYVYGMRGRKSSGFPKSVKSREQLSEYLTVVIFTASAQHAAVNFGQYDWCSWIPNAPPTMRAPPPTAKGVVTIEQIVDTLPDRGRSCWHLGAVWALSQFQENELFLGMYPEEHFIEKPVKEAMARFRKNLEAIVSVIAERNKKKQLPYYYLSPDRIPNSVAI
Briefly: In vitro inhibition of 5-lipoxygenase from human polymorphs.

As for `CN(O)C(=O)/C=C/c1cccc(Oc2ccccc2)c1`, the IC50 against Cyclooxygenase was 5000 nM; in assay [1], 50 nM.
As for `CC(=O)N(O)C/C=C/c1cccc(Oc2ccccc2)c1`, the IC50 at Cyclooxygenase was 3200 nM.
For the compound `CC(=O)N(O)Cc1ccc(OCc2ccccc2)cc1`, the 50% inhibitory concentration (IC50) was determined as 22000 nM against Cyclooxygenase and 770 nM in assay [1].
